These are literature values, as cited in patent publication US10035822B2, “Cell-reactive, long-acting, or targeted compstatin analogs and related compositions and methods” (APELLIS PHARMACEUTICALS, INC., priority 2012, dated 2018).

Non-standard residues stand in square brackets, D forms with d. Trp(6-F) = N[C@@H](Cc1c[nH]c2cc(F)ccc12)C(=O)O; Bpa = N[C@@H](Cc1ccc(C(=O)c2ccccc2)cc1)C(=O)O; 1Nal = N[C@@H](Cc1cccc2ccccc12)C(=O)O; 2Nal = N[C@@H](Cc1ccc2ccccc2c1)C(=O)O

The test system of the data set is complement activation. The note with it: relative to compstatin amidated at the C-terminus; published data (WO2004/026328, WO2007044668, Mallik 2005, Katragadda 2006); cited from earlier work.
“Ac-ICV(2-IgI)QDWGAHRCT-CONH2 (Ac-ICV[2‑Igl]QDWGAHRCT-NH2; cysteine pairing not given here) [Ac-V42IgI/H9A]”: the Activity over compstatin is 39× more.

On to Ac-ICVYQDWGAHRCT-CONH2 [Ac-V4Y/H9A], for which the Activity over compstatin is given as 14× more.

Ac-ICVWQDWGAHRCT-CONH2 [Ac-V4W/H9A]: the Activity over compstatin is 45× more.

Regarding “Ac-ICV(5-methyl-W)QDWGAHRCT-CONH2 [Ac-V4(5-MeW)/H9A]”, the Activity over compstatin is 67× more.

For the substance “Ac-ICV(1-Nal)QDWGAHRCT-COOH (Ac-ICV[1Nal]QDWGAHRCT-OH; cysteine pairing not given here) [Ac V4(1-Nal)/H9A-OH]”, the Activity over compstatin is recorded as 30× more.

On to “Ac-ICV(2-Nal)QDWGAHRCT-CONH2 (Ac-ICV[2Nal]QDWGAHRCT-NH2; cysteine pairing not given here) [Ac-V4(2-Nal)/H9A]”, for which the Activity over compstatin was 99× more.

“Ac-ICV(5fW)QDWGAHRCT-CONH2 [Ac-V4(5fW)/H9A]”: the Activity over compstatin was 31× more.

Consider “Ac-ICVDhtQDWGAHRCT-COOH [Ac-V4Dht/H9A-OH]”, for which the Activity over compstatin is on record as 5× more.

As for “Ac-ICVWQD(5fW)GAHRCT-CONH2 [Ac-V4W/W7(5fW)/H9A]”, the Activity over compstatin is reported as 121× more.

As for “Ac-ICV(Bpa)QDWGAHRCT-CONH2 (Ac-ICV[Bpa]QDWGAHRCT-NH2; cysteine pairing not given here) [Ac-V4(Bpa)/H9A]”, the Activity over compstatin is 86× more.

In the case of “Ac-ICVWQDWGAHRCdT-COOH [Ac-V4W/H9A/T13dT-OH]”, the Activity over compstatin was 55× more.

Consider “H-GICV(6fW)QD(6fW)GAHRCTN-COOH (H-GICV[Trp(6-F)]QD[Trp(6-F)]GAHRCTN-OH; cysteine pairing not given here) [+G/V4(6fW)/W7(6fW)H9A + N-OH]”, for which the Activity over compstatin is recorded as 126× more.

In the case of “Ac-ICV(Bpa)QDWGAHRCT-COOH (Ac-ICV[Bpa]QDWGAHRCT-OH; cysteine pairing not given here) [Ac-V4(Bpa)/H9A-OH]”, the Activity over compstatin is on record as 49× more.

Turning to “Ac-ICV(2-Nal)QDWGAHRCT-COOH (Ac-ICV[2Nal]QDWGAHRCT-OH; cysteine pairing not given here) [Ac V4(2-Nal)/H9A-OH]”, the Activity over compstatin is on record as 38× more.

Take “Ac-ICV(2-IgI)QDWGAHRCT-COOH (Ac-ICV[2‑Igl]QDWGAHRCT-OH; cysteine pairing not given here) [Ac-V42IgI/H9A-OH]”: the Activity over compstatin was 37× more.

Turning to Ac-ICVVQDWGHHRCT-CONH2 [Ac-compstatin], the Activity over compstatin is recorded as 3× more.
